The source of these data is patent US9220672B2, “Peptide for use in the treatment of skin conditions” (ORGANOBALANCE GMBH, priority 2011, dated 2015).

Molecules are shown by their SMILES.

What all share (assay type): cell-based
The subject of assay [1] is S. epidermidis. Description: S. epidermidis growth stimulation, in-vitro hole plate assay on tellurite-TSA. The conditions noted are these: 40 μl of 1 mg/ml solution per well, 35° C., 24 h, vs water control. As for the experimental part: To this effect, an S. epidermidis growth simulation assay was employed, using potassium tellurite as the growth indicator, observed in the assay as brown zones. An S. epidermidis log phase culture at 1:200 (containing approximately 1×10^7 cfu/ml of bacteria) was used as the working culture in the experiment.
The working culture was plated onto tellurite-TSA, after which 5 mm diameter holes were respectively punched into the agar for forming the testing wells. 40 μl of a solution containing the tetrapeptide at a concentration of 1 mg/ml were then added to a first and second well, and the same volume of water was added as the control to a third well. The Petri dish was then incubated at 35° C. for 24 h.

The test system of assay [2] is S. epidermidis. Description: S. epidermidis in vitro liquid assay (microtiter plate, OD600nm). As to conditions: SCD-bouillon (1:2), pH 6.5, vs control devoid of additive. As for the experimental part: A Microtiter plate having wells with a respective volume of 200 μl was used for the S. epidermidis in vitro liquid assay. To this effect, a 24 h cell culture of S. epidermidis was diluted 1:200 thus affording an optical density OD600nm of 0.06 in SCD-bouillon (1:2). The samples used in the experiment further contained the inventive tetrapeptide H-Lys(H-Asp-NH2)-Ala-Glu-NH2 in respective concentrations of 1 mg/ml and 0.2 mg/ml. As control assay, samples containing 1 mg/ml of a mixture containing Alanine, Glutamine, Lysine, and Asparagine in equal parts and samples containing no further components in addition to S. epidermidis were respectively employed. The pH of all of the samples was 6.5.

The test system of assay [3] is S. aureus. Nature of the assay: S. aureus in vitro liquid assay (microtiter plate, OD600nm). As to conditions: 1 mg/ml, SCD-bouillon (1:2), pH 6.5, vs control devoid of additive. Here is the method:
An S. aureus in vitro liquid assay was performed on a Microtiter plate having wells with a respective volume of 200 μl. To this effect, a 24 h cell culture of S. aureus was diluted 1:500 thus affording an optical density OD600nm of 0.05 in SCD-bouillon (1:2). One of the samples used in the experiment further contained the inventive tetrapeptide H-Lys(H-Asp-NH2)-Ala-Glu-NH2 in a concentration of 1 mg/ml. The pH of the samples was 6.5.

Consider `CC(NC(=O)C(N)CCCCNC(=O)CC(N)C(N)=O)C(=O)NC(CCC(=O)O)C(N)=O` (stereo not drawn) [H-Lys(H-Asp-NH2)-Ala-Glu-NH2], for which the “growth of S. epidermidis (tellurite growth indicator zone around well)” value in assay [1] was “able to stimulate the growth”; in assay [1] (listed as inventive tetrapeptide), “clearly stimulated”. Also, the “growth of S. epidermidis (optical density OD600nm over incubation time)” value in assay [2] (0.2 mg/ml) was “stimulation is already apparent”; in assay [2] (1 mg/ml), “clearly stimulates the growth”. In addition, in assay [3], the “growth of S. aureus (optical density OD600nm over incubation time)” value was “clearly inhibited”.
